According to the METLIN SMRT retention time set (Domingo-Almenara et al. 2019):

Assay: gradient 5% acetonitrile 3 min, to 50% in 2 min, to 85% in 15 min, held 3 min, 100 µL/min
Conditions: column: Zorbax Extend-C18 2.1 x 50 mm; eluents: water / acetonitrile, 0.1% formic acid
Outline: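 Retention times come from adduct peaks that were picked computationally and then checked by hand. The standards, pure and pooled in mixtures of ~100 molecules, were run on a Zorbax Extend-C18 column (2.1 × 50 mm, 1.8 μm) at 100 μL/min with water and acetonitrile, each with 0.1% formic acid. Detection was by quadrupole time-of-flight mass spectrometry in positive and negative ionization mode, with a dead volume of 40 μL and a dwell volume of 900 μL.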

RP-LC retention time [s] | SMILES
650 | COc1ccccc1N1CCN(CCCCN2C(=O)CCC2=O)CC1
1260 | Cc1nn(-c2nc(-c3ccc(Cl)cc3)cs2)c(C)c1CC(=O)N1CCCCC1
616 | CCNC(=O)N1CCC(c2noc(-c3ccncc3)n2)C1 (configuration not stated)
795 | O=C1COc2cc(S(=O)(=O)N3CCCC3C(=O)N3CCc4ccccc43)c(Cl)cc2N1 (configuration not stated)
731 | O=C(Nc1cccc(C(F)(F)F)c1)N1C[C@H]2C[C@H](C1)[C@H]1CCCC(=O)N1C2
730 | Cc1nc(-c2ccc(OC3CCN(C(=O)NC(C)C)C3)cc2)no1 (configuration not stated)
723 | CC(=O)c1ccc(N2CCN(C(=O)C3Oc4ccccc4NC3=O)CC2)cc1 (configuration not stated)
822 | Cc1ccc(C(=O)Nc2cnc(N3CCCCC3)nc2)s1
920 | COC(=O)c1ccc2c(=O)n(-c3cc(OC)cc(OC)c3)c(N3CCCC3)nc2c1
790 | Cc1cc(C2CCCN2C(=O)Cc2cccc(F)c2)no1 (configuration not stated)
753 | Cc1c(Cl)cccc1NC(=O)Nc1cccc(-c2ccc(N3CCOCC3)nn2)c1
605 | CCCCn1c(CN2CCCC2)nc2cc(NC(=O)CC)ccc21
676 | Cc1nc(-c2cccc(NC(=O)c3ccc(N4CCCC4)nn3)c2)cs1
1050 | CC1CCN(S(=O)(=O)N2CCCC(C(=O)NCc3ccc(Cl)cc3)C2)CC1 (configuration not stated)
609 | Cc1cc(N2CCCCCC2)n2nc(CN3CCCCC3C)nc2n1 (configuration not stated)
776 | CSc1cccc(NC(=O)N2CCN(Cc3nc4cc(C)ccc4o3)CC2)c1

RP-LC retention time [s] | SMILES
547 | Cn1c(C(=O)NCCCN2CCN(C3CCCCC3)CC2)cc2sccc21
673 | Cc1csc(-c2cc(S(=O)(=O)NCCN3CCCCC3C)cn2CC(=O)N2CCCCC2)n1 (configuration not stated)
1040 | COc1ccc(S(=O)(=O)N2CCCC(C(=O)NC3CCCCCC3)C2)cc1C (configuration not stated)
676 | O=C(CN1C(=O)C2CCCCN2c2ccc(C(=O)N3CCCC3)cc21)Nc1cccc(Cl)c1 (configuration not stated)
899 | CC(C)NC(=O)c1ccc(OCC2CCCN(C(=O)Cc3ccccc3Cl)C2)cc1 (configuration not stated)
692 | CCOc1ccc(Cl)cc1S(=O)(=O)N1CCC(C(=O)NCCO)CC1
776 | COC(=O)c1c(C)[nH]c(C(=O)N2CCCC(C(=O)NCc3ccccc3C)C2)c1C (configuration not stated)
781 | Cc1csc(-c2ccc(N3CCN(C(=O)c4cccs4)CC3)nc2)n1
648 | O=C(O)c1ccc(N2CCCC(CN3CCCC3)C2)c(NS(=O)(=O)c2cccc(F)c2)c1 (configuration not stated)
755 | COc1ccc(OC)c(NC(=O)C(C)n2cnc3nc4c(cc3c2=O)CCCC4)c1 (configuration not stated)
633 | O=C1COc2ccc(C(=O)N3CCCCC3)cc2N1
758 | Cc1cc(F)ccc1NC(=O)C1CC(=O)N(c2ccc3c(c2)CCN3C(=O)C2CC2)C1 (configuration not stated)
619 | CCC(C)NC(=O)N1CCN(Cc2nc3cc(C(=O)N(CC)CC)ccc3o2)CC1 (configuration not stated)
712 | COc1cccc(C2=NC3(CCN(C(=O)c4ccc5c(c4)OCO5)CC3)NC2=O)c1
819 | O=C1CC(C(=O)N2CCN(c3ccccc3)CC2)CN1CCc1c[nH]c2ccc(F)cc12 (configuration not stated)
824 | CCc1nnc(-c2ccc(S(=O)(=O)N3CCCCC3)o2)o1

The next lines start with the compound.

SMILES | RP-LC retention time [s]
O=C(O)c1cc(-c2cccc3ccccc23)nc2ccc(Br)cc12 | 1090
CCn1nccc1C(=O)N1CCc2c(-c3ccc(OC)cc3)cccc2[C@H]1C | 1040
C=CCN(CC=C)S(=O)(=O)c1ccc(C(=O)Nc2nc3c(s2)CCc2ccccc2-3)cc1 | 1240
CSc1cccc(NC(=O)c2cccn2Cc2noc(C)n2)c1 | 899
COc1ccc(OC)c(NC2=NS(=O)(=O)C(c3ccc(F)cc3)=C2C)c1 | 880
Cc1cc(C(=O)Nc2ccc(-c3ccn[nH]3)cc2)c(C)o1 | 716
CCc1ccc(S(=O)(=O)N(C)CC2CCOCC2)cc1 | 911
CCOC(=O)N1CCC(NC(=O)c2cc3sccc3n2Cc2ccc(Cl)cc2)CC1 | 1060
C=C[C@H]1CN2CC[C@H]1C[C@@H]2[C@@H](O)c1ccnc2ccc(OC)cc12 | 616
CCCOc1nc2ccccc2nc1N1CCCC(C(=O)Nc2ccccc2OCC)C1 (configuration not stated) | 1280
CC1(C(=O)NCc2ccc(F)cc2)CN(S(=O)(=O)c2ccccc2)CC(=O)N1C1CC1 (configuration not stated) | 816
CC(C)c1ccc(NC(=O)C2CCCN(c3ncnc4c3oc3ccccc34)C2)cc1 (configuration not stated) | 976
COc1ccc(NC(=O)c2c(O)c3sccc3n(C)c2=O)cc1Cl | 1170
CC(C)NC(=O)N1CCNC(=O)C1 | 540
CCC(Oc1ccc(=O)n(-c2ccc(F)cc2)n1)C(=O)NCCC(C)C (configuration not stated) | 804
CCn1cc(C(=O)NCc2ccc(C)o2)c2cccnc21 | 742
Cc1ccc(NC(=O)Cc2csc3nc(-c4ccc(C)c(C)c4)cn23)cc1 | 884
CC(C)S(=O)(=O)c1cc2c(cc1NC(=O)c1ccc(F)cc1)n(C)c(=O)n2C | 788
Cc1nc2cc3c(cc2n1CC(=O)Nc1ccc(F)c(Cl)c1)OCCO3 | 690
O=C(Oc1ccc2oc(=O)sc2c1)c1cccc(Cl)c1 | 1090

SMILES | RP-LC retention time [s]
Cc1cc(C(=O)Nc2cccc(Cl)c2)nc2ccnn12 | 988
CCn1nnc(NCc2ccc(-c3ccc(Br)cc3Cl)o2)n1 | 1120
Cc1ccc(NC(=O)C2(C)Oc3cccnc3N(C)C2=O)c(C)c1 (configuration not stated) | 816
COCC(=O)NC1CCC12CCN(C(C)=O)CC2 (configuration not stated) | 589
CCOC(=O)Cn1c(=O)c2c(nc3n2CC(C)CN3c2ccc(OC)cc2)n(C)c1=O (configuration not stated) | 888
COc1cccc(CNC(=O)CN2CCN(Cc3ccc(C)cc3)C(=O)C2=O)c1 | 715
COc1ccc(-c2oc3ccc(OC)cc3c2C(=O)O)cc1 | 879
CCC(C)NC(=O)c1c(C)sc2ccn(C)c(=O)c12 (configuration not stated) | 654
Cc1cccn2cc(-c3cccc(S(=O)(=O)N4CCOCC4)c3)nc12 | 604
CCn1c(-c2cccc(C(=O)NCc3cccs3)c2)nc2cccnc21 | 733
Cc1cccc(NS(=O)(=O)c2cc3c(=O)n(C)ncn3c2)c1 | 797
CCC1CN2C=Nc3oc(C)c(C(=O)NCc4ccccc4Cl)c3C2=N1 (configuration not stated) | 681
Cc1ccc(S(=O)(=O)N2CCCN(c3ccc(=O)n(-c4ccccc4)n3)CC2)c(C)c1 | 916
CCn1ccc(C(=O)Nc2ccc(N3CCN(c4ccccc4)C3=O)nc2)n1 | 786
CCN(CC)CCNC(=O)C1CCCN(c2nc3cccnc3s2)C1 (configuration not stated) | 577
CCN1C(=O)c2ccccc2Sc2cc(-c3noc(CNC(=O)c4cccs4)n3)ccc21 | 917
Cc1cnc(-c2ccccc2)n1C1CN(Cc2ccc(F)cc2F)C1 | 572
COc1ccc(-c2nnc(Cc3nc(C(C)C)no3)o2)cc1 | 858
COCCN1C(=O)[C@H]2CN(Cc3ccc(C(C)C)cc3)C[C@H]2C1=O | 674
COc1ccc(Nc2c(-c3ccc(C)cc3)nc3ncccn23)cc1OC | 683

SMILES | RP-LC retention time [s]
CSc1cccc(NC(=O)Cn2c(C)cc(-c3nnc(C)o3)c2C)c1 | 790
Cn1cc(CC(=O)NCc2ccc3c(c2)OCO3)c2cccnc21 | 648
Cc1nnc(-c2ccncc2)o1 | 547
COC(=O)c1cccc(NC(=O)N2CCSc3ncccc32)c1 | 739
CCn1ccc(C(=O)N2CCC3(CC2)c2nccn2-c2ccccc2CN3CC(C)C)n1 | 599
c1ccc(-c2nc[nH]c2-c2ccccc2)cc1 | 696
Cc1cnc(C2CC2)n1CCNS(=O)(=O)Cc1ccccc1 | 634
COc1cc2c(c(OC)c1OC)-c1ccc(OC)c(=O)cc1[C@@H](NC(=O)c1ccccc1)CC2 | 722
O=C(NCc1ccco1)Nc1ccccc1Cl | 766
CN(C)CCCNC(=O)c1cc(-c2ccc(Cl)cc2)cn1C | 671
c1ccc(Nc2c(-c3ccccc3)nc3cnccn23)cc1 | 826
CCOc1ccc(NC(=O)Nc2nccn(-c3ccc(Br)cc3)c2=O)cc1 | 1040
CC(C)CCNC(=O)C1CCN(c2cncnc2N(C)C)CC1 | 564
CCOc1nccnc1N1CCC(N(C)C(=O)c2ccsc2)C1 (configuration not stated) | 724
Cc1ccc2[nH]cc(CCNC(=O)c3cccc(NC(=O)c4nnc(C5CC5)s4)c3)c2c1 | 932
CCc1nnc(NC(=O)CSc2nnc(-c3ccc(Cl)cc3)o2)s1 | 826
Fc1ccc(C2Cn3nnc(-c4nc(-c5cccc(Cl)c5)no4)c3CO2)cc1 (configuration not stated) | 1260
COc1ccc(-c2cc(C(=O)Nc3ccccc3F)nn2C2CCS(=O)(=O)C2)cc1 (configuration not stated) | 928
O=S(=O)(Nc1ccc(F)cc1)c1cccnc1Nc1ccccc1 | 1050
CC(C(=O)N1CCN(c2cc(-c3ccccc3)[nH]n2)CC1)c1ccccc1 (configuration not stated) | 824
